Measurements published in US8802149B2, “Systems and processes for spray drying hydrophobic and hydrophilic components” (Novartis Pharma AG, priority 1996, dated 2014).

Experiment: Solubility of drug and excipient in common organic solvent or cosolvent system
Format: physicochemical
Conditions: for solubility in Acetone (50%)/Water (50%) (by volume): solvent Acetone (50%)/Water (50%) by volume
Description: According to the third aspect of the present invention. an organic solvent or cosolvent is selected in which both the hydrophobic drug or other component and the hydrophilic excipient or other component may be dissolved. […] The solvent must further be selected to leave minimum residual solvent in the spray dried process and/or be capable of being adequately removed from the spray dried product. The particular organic solvent or cosolvent selected will depend on the nature of the hydrophobic drug and the hydrophilic excipient.
Each of these formulations has been spray dried and tested as described in further detail in the Experimental section hereinafter.

CCCC1O[C@@H]2C[C@H]3[C@@H]4CCC5=CC(=O)C=C[C@]5(C)[C@H]4[C@@H](O)C[C@]3(C)[C@]2(C(=O)CO)O1 (some centres unmarked) [Budesonide]
solubility in Acetone (50%)/Water (50%) (by volume): (adequate solubility) | solubility in DMSO (33%)/Acetone (67%) (by volume) (solvent DMSO (33%)/Acetone (67%) by volume): (good solubility) | solubility in Ethanol (solvent Ethanol): (adequate solubility) | solubility in Methanol (solvent Methanol): (good solubility)

OC[C@@H](O)[C@@H](O)[C@H](O)[C@H](O)CO [Mannitol]
solubility in Acetone (50%)/Water (50%) (by volume): (adequate solubility)
